Where two headings read alike, the source gives them in different places.
Assays:
[1] = system: formation of osteoclasts in co-culture of bone marrow cells and osteoblasts; test: Osteoclastogenesis inhibition via co-culture system (TRAP staining); type: cell-based, mice; conditions: 1 μM compound, 7 days co-culture, TRAP-positive multinucleated osteoclasts vs vehicle control
Description: Osteoclastogenesis inhibitory effects of the compounds of the present invention were evaluated via a co-culture system (Reference: Endocrinology 137(1996), 2187 to 2190, E. Jimi et al.). A specific experimental method is as follows.
1) Preparation of Bone Marrow Cells and Osteoblasts
Femora and tibia were aseptically dissected from 6 to 8-week-old male ddY mice to harvest bone marrow cells by a conventional method using a syringe. In brief, tissues were removed from the dissected bone, the bone ends were cut off with scissors, and the bone marrow was isolated by pushing a medium-containing syringe (23G) against the one end of the cut bone. The isolated bone marrow was subjected to repeated piston movement of a syringe such that single cells were obtained (Reference: Endocrinology 123(1988), 2600 to 2602, Takahashi et al.). After removal of red blood cells within the bone marrow, the bone marrow cells recovered by centrifugation were placed in an α-MEM supplemented with 10% fetal bovine serum (FBS), followed by counting of nucleated cells and then were immediately used for a co-culture system.
2) Osteoclastogenesis Inhibition Experiment Via Co-Culture System
As the medium used for a co-culture system, a differentiation medium with the addition of differentiation factors 1α,25-dihydroxyvitamin D3 (10^−8M) and dexamethasone (10^−8M) to a-MEM supplemented with 10% FBS was used for the induction of osteoclastogenesis. First, the compounds dissolved in dimethyl sulfoxide (DMSO) at a concentration of 1 mM were diluted to 2 μM using the above-mentioned differentiation medium. As a vehicle control group, 0.2% (v/v) DMSO was added to the medium. 100 μL/well of each medium was added to 96-well plates. In addition, the above prepared bone marrow cells and osteoblasts were plated onto 96-well plates at a density of 1×10^5 cells/50 μL/well and 3×10^3 cells/50 μL/well, respectively. The total volume/well was 200 μL and the final compound concentration was 1 μM. The control group was 0.1% DMSO. The cells were cultured with exchange of the culture media with fresh media containing differentiation factors and test materials at an interval of 2 to 3 days.
7 days after culturing of cells, the formation of multinucleated osteoclasts was confirmed by microscopic examination, the medium was removed from the wells and then the cells were fixed in a 10% phosphate-buffered formalin solution. The degree of formation of mature osteoclasts was measured taking advantage of the characteristics of osteoclasts showing a positive reaction to a tartrate-resistant acid phosphatase (TRAP) staining solution. The TRAP staining solution was prepared in a manner such that naphthol AS-MS phosphate as a substrate and a coloring agent (Fast Red Violet LB salt) were dissolved in N,N-dimethylformamide, and a 0.1N NaHCO3 buffer solution containing 50 mM of tartaric acid was added thereto. Among the TRAP-positive cells under a light microscope, multinucleated osteoclasts having 6 to 7 nuclei were regarded as mature osteoclasts.
The degree of inhibition of osteoclastogenesis was calculated according to the following equation 1. The results are summarized in Table 27 below (Experiments were carried out for 4 wells/experimental group (n=4), and the results are given in terms of mean±standard deviation)
Inhibition of osteoclastogenesis(%)=(1−numbers of osteoclasts observed in experimental group/numbers of osteoclasts observed in vehicle control group)×100(%) [Equation 1]

[2] = system: Osteoblasts (Calvarial cells); test: Cytotoxicity test (MTT); conditions: 1 μM compound, 72 hours, in comparison with vehicle control
[3] = system: Osteoblasts (Calvarial cells); test: Alkaline phosphatase (ALP) activity in osteoblasts (Calvarial cells); type: cell-based, mice; conditions: Mus musculus, 72 h; 1 μM compound, 3 days, Calvarial cell; read-out: ALP activity (1 μM, % of Control) Calvarial cell
Description: Differentiation and activity of osteoblasts were indirectly evaluated by measuring an ALP activity having a close relationship with osteogenesis.
Osteoblasts (Calvarial cells) prepared in Experimental Example 1 and MC3T3-E1 cells (available from RIKEN Cell Bank, Japan) were collected in α-MEM supplemented with 10% FBS, followed by cell counting. The cells were dispensed into 24-well cultureware at a density of 2×10^4 cells/well. After culturing of the cells for 24 hours, the culture media were discarded and replaced with fresh media in which test compounds were diluted to a concentration of 1 μM (1 mL/well). In addition, the vehicle control group containing 0.1% DMSO was also treated. […] When the experiment was terminated, the supernatant was removed and the cells were washed three times with cold phosphate buffer at 4°. 0.2% Triton X-100 was added to the washed cells which were then subjected to three cycles of freezing at −70° and thawing at room temperature for the complete lysis of cells. The cell extracts were pooled and centrifuged to collect the cell supernatant which was used for the measurement of ALP activity and proteins. The protein concentration was measured using a BCA assay kit (manufactured by Sigma-Aldrich). For the measurement of ALP activity, p-nitrophenylphosphate was added to the cell supernatant which was then incubated at 37° for 30 minutes, and the reaction was terminated with the addition of 50 μL of 0.2N sodium hydroxide. The standard curve was plotted at the absorbance of 405 nm using p-nitrophenol as a standard material and then the absorbance of test materials thus reacted was measured to determine the production amount of p-nitrophenol.
The ALP activity was calculated by dividing the amount of p-nitrophenol produced from each test material by the protein amount and the reaction time. Therefore, the unit of ALP activity was given in terms of p-nitrophenol/μg protein/min. The results are given in Tables 28-1 and 28-2 where the ALP activity unit of each test material was given in terms of % change through the comparison between the individual test materials and the vehicle control group.

[4] = system: Osteoblasts (Calvarial cells); conditions: ICR, mouse, 72 h, 1 μM

SMILES	Osteoclastogenesis inhibition (%) 1 μM [1] [%]	Cell viability (%) Calvarial cell [2] [%]	activity at 1 µM [3] [%]	Cell viability (%) Calvarial cell [4] [%]
CN(CC1OCCO1)c1ccc([N+](=O)[O-])c(Nc2ccc(-n3ccnc3)cc2)n1 [Compound 89]	73	89		
CC(=O)c1cccc(Nc2nc(NC(C)(C)C)ccc2[N+](=O)[O-])c1 [Compound 104, 2-(3-acetylphenylamino)-6-(t-butylamino)-3-nitropyridine]			112	97
CC(=O)c1cccc(Nc2nc(N3CCN(C)CC3)ccc2[N+](=O)[O-])c1 [Compound 105, 2-(3-acetylphenylamino)-6-(4-methylpiperazin-1-yl)-3-nitropyridine]			121	90
CC(=O)c1cccc(Nc2nc(N3CCOCC3)ccc2[N+](=O)[O-])c1 [Compound 107, 2-(3-acetylphenylamino)-6-morpholino-3-nitropyridine]			121	97
CC(C)CNc1ccc([N+](=O)[O-])c(Nc2ccc(N3CCOCC3)cc2)n1 [Compound 110, 2-(4-morpholinophenylamino)-6-(isobutylamino)-3-nitropyridine]			143	112
Cc1nc(-c2ccc(Nc3nc(NC(C)C)ccc3[N+](=O)[O-])cc2)cs1 [Compound 133, 2-[4-(2-methylthiazol-4-yl)phenylamino]-6-(isopropylamino)-3-nitropyridine]			122	102
Cc1nc(-c2ccc(Nc3nc(-n4ccnc4C(C)C)ccc3[N+](=O)[O-])cc2)cs1 [Compound 137, 2-[4-(2-methylthiazol-4-yl)phenylamino]-6-[(2-isopropyl)imidazol-1-yl]-3-nitropyridine]			122	92
Cc1nc(-c2ccc(Nc3nc(NC(C)(C)C)ccc3[N+](=O)[O-])cc2)cs1 [Compound 140, 2-[4-(2-methylthiazol-4-yl)phenylamino]-6-(t-butylamino)-3-nitropyridine]			118	102
NC1CCN(c2ccc([N+](=O)[O-])c(Nc3ccc(-c4csc(C5CCCCC5)n4)cc3)n2)CC1 [Compound 161, 2-[4-(2-cyclohexylthiazol-4-yl)phenylamino]-6-(4-aminopiperidino)-3-nitropyridine]			121	98
CCN(CC)c1ccc(Nc2nc(NCC(C)C)ccc2[N+](=O)[O-])cc1F [Compound 177, 2-[(3-fluoro-4-diethylamino)phenylamino]-6-(isobutylamino)-3-nitropyridine]	61	107		
O=[N+]([O-])c1ccc(NCc2cccnc2)nc1Nc1ccc(N2CCOCC2)c(F)c1 [Compound 197, 2-[(3-fluoro-4-morpholino)phenylamino]-6-[(3-pyridyl)methylamino]-3-nitropyridine]	81	95		
O=[N+]([O-])c1ccc(NCc2ccncc2)nc1Nc1ccc(N2CCOCC2)c(F)c1 [Compound 198, 2-[(3-fluoro-4-morpholino)phenylamino]-6-[(4-pyridyl)methylamino]-3-nitropyridine]	84	96		
NC1CCN(c2ccc([N+](=O)[O-])c(Nc3ccc(N4CCOCC4)c(F)c3)n2)CC1 [Compound 202, 2-[(3-fluoro-4-morpholino)phenylamino]-6-(4-aminopiperidino)-3-nitropyridine]	90	96		
O=[N+]([O-])c1ccc(NCc2cccnc2)nc1Nc1ccc(N2CCSCC2)c(F)c1 [Compound 209, 2-[(3-fluoro-4-thiomorpholino)phenylamino]-6-[(3-pyridyl)methylamino]-3-nitropyridine]	85	99		
O=[N+]([O-])c1ccc(NCc2ccncc2)nc1Nc1ccc(N2CCSCC2)c(F)c1 [Compound 210, 2-[(3-fluoro-4-thiomorpholino)phenylamino]-6-[(4-pyridyl)methylamino]-3-nitropyridine]	70	105		
CN1CCN(c2ccc([N+](=O)[O-])c(Nc3ccc(N4CCSCC4)c(F)c3)n2)CC1 [Compound 212, 2-[(3-fluoro-4-thiomorpholino)phenylamino]-6-(4-methylpiperazin-1-yl)-3-nitropyridine]	85	100		
NC1CCN(c2ccc([N+](=O)[O-])c(Nc3ccc(N4CCSCC4)c(F)c3)n2)CC1 [Compound 214, 2-[(3-fluoro-4-thiomorpholino)phenylamino]-6-(4-aminopiperidino)-3-nitropyridine]	98	103		
O=[N+]([O-])c1ccc(NCc2cccnc2)nc1Nc1ccc(N2CCNCC2)c(F)c1 [Compound 220, 2-[(3-fluoro-4-piperazino)phenylamino]-6-[(3-pyridyl)methylamino]-3-nitropyridine]	82	93		
O=[N+]([O-])c1ccc(NCc2ccncc2)nc1Nc1ccc(N2CCNCC2)c(F)c1 [Compound 221, 2-[(3-fluoro-4-piperazino)phenylamino]-6-[(4-pyridyl)methylamino]-3-nitropyridine]	89	91		
O=[N+]([O-])c1ccc(N2CCC(O)CC2)nc1Nc1ccc(N2CCCCC2)c(F)c1 [Compound 226, 2-[(3-fluoro-4-piperidino)phenylamino]-6-(4-hydroxypiperidino)-3-nitropyridine]	66	104		
CC(C)c1nccn1-c1ccc([N+](=O)[O-])c(Nc2ccc(N3CCCCC3)c(F)c2)n1 [Compound 228, 2-[(3-fluoro-4-piperidino)phenylamino]-6-[(2-isopropyl)imidazol-1-yl]-3-nitropyridine]	73	99		
CN1CCN(c2ccc([N+](=O)[O-])c(Nc3ccc(N4CCCCC4)c(F)c3)n2)CC1 [Compound 232, 2-[(3-fluoro-4-piperidino)phenylamino]-6-(4-methylpiperazin-1-yl)-3-nitropyridine]	86	100		
